Patent US8058467B2, “Prostaglandin derivatives” (Nicox S.A., priority 2004, dated 2011)

Legend:
[1] = tested on: rat pheochromocytoma cells (PC12); test: cGMP accumulation in PC12 cells (nitric oxide-mediated activity); type: cell-based; settings: for EC50: Rattus norvegicus, PC-12, 0.75 h, 30 μM YC-1, read-out: EC50 (effective concentration producing half maximal response), cGMP accumulation
Experimental: The formation of cyclic guanosine-3′,5′ monophosphate (cGMP) in cells in the eye is involved in the regulation of aqueous humor flow. Thus, elevation of cGMP levels leads to decreased aqueous humor production and reduction of intraocular pressure.
We measured the effects of test drugs on cGMP formation in a well established cell assay.
Undifferentiated pheochromocytoma cells (PC12) were used. The monolayer cells were incubated for 45 min in Hank's Balanced Salt Solution enriched with 10 mM Hepes, 5 mM MgCl2 and 0.05% ascorbic acid at the final pH of 7.4 and containing 100 μM of the phosphodiesterase inhibitor, isomethyl-butyl-xanthine (IBMX), 30 μM of the guanylyl cyclase […], YC-1, and the test drugs at the appropriate concentration. The reaction was terminated by the removal of the incubating buffer followed by the addition of […] of 100% ice-cold ethanol. The plate was then dried under hot air steam and the residue dissolved, extracted and analysed using commercially available cyclic cGMP enzyme immunoassay kit.

[2] = tested on: carbomer-evoked increase in IOP; test: Intraocular pressure in carbomer-treated rabbits; type: in vivo, rabbit
Experimental: (§1) Male NZW rabbits ranging from 3-5 kgs of body weight were used in this study. Briefly, the ability of Latanoprost nitroderivative (compound 4, EXAMPLE 3) at reducing intraocular pressure (IOP) was tested in animals previously treated with intracameral injection of 0.25% carbomer solution installation until after a stable increase of the intraocular pressure was reached. In this particular study, test drugs were administered to one eye with the dosage schedule of 1 drop/eye/day for 5 days a week with a physiologic solution containing 0.005% of control or test compounds. The IOP was monitored 3 h after drug application, two-three times weekly for a total of 4 weeks. This concentration was chosen as it reflects that of latanoprost isopropyl ester currently used in clinic to treat the increase of IOP observed in glaucoma patients. Furthermore, at each visit, about 200 μl of aqueous humor was collected using a 30 gauge needle from both eyes under lidocaine anesthesia for further biochemical evaluation of cGMP, camp and nitrite/nitrate contents.

[3] = tested on: aqueous humor cGMP, cAMP and NOx; test: cGMP, cAMP and NOx content of aqueous humor in carbomer-treated rabbits; type: in vivo, rabbit; settings: for NOx / cAMP / cGMP: aqueous humor; for NOx in intraocular aqueous humor (in words) / cGMP in intraocular aqueous humor (in words) / intraocular cAMP (in words): over the 4-week treatment
Experimental: as §1

[4] = 45 min, 100 μM IBMX, 30 μM YC-1
[5] = Day 2, 0.005% solution, 1 drop/eye/day, 3 h after application
[6] = Day 7, 0.005% solution, 1 drop/eye/day, 3 h after application
[7] = Day 10, 0.005% solution, 1 drop/eye/day, 3 h after application
[8] = Day 15, 0.005% solution, 1 drop/eye/day, 3 h after application
[9] = Day 17, 0.005% solution, 1 drop/eye/day, 3 h after application
[10] = Day 23, 0.005% solution, 1 drop/eye/day, 3 h after application
[11] = Day 25, 0.005% solution, 1 drop/eye/day, 3 h after application
[12] = Pre-treatment (baseline after intracameral 0.25% carbomer)

Row | EC50 ([1]; 45 min, 100 μM IBMX) [µM] | SMILES | Emax (maximum effect), cGMP accumulation [1, 4] | IOP [2, 5] [mmHg] | IOP [2, 6] [mmHg] | IOP [2, 7] [mmHg] | IOP [2, 8] [mmHg] | IOP [2, 9] [mmHg] | IOP [2, 10] [mmHg] | IOP [2, 11] [mmHg] | IOP [2, 12] [mmHg] | NOx ([3]; I Week) [nmol/mg prot] | cAMP ([3]; I Week) [fmol/mg prot] | cGMP ([3]; I Week) [fmol/mg prot] | NOx ([3]; II Week) [nmol/mg prot] | cAMP ([3]; II Week) [fmol/mg prot] | cGMP ([3]; II Week) [fmol/mg prot] | NOx ([3]; III Week) [nmol/mg prot] | cAMP ([3]; III Week) [fmol/mg prot] | cGMP ([3]; III Week) [fmol/mg prot] | NOx ([3]; IV Week) [nmol/mg prot] | other results
1 | 2.4 | O=C(CCC/C=C\C[C@@H]1[C@@H](CC[C@@H](O)CCc2ccccc2)[C@H](O)C[C@@H]1O)OCCCCO[N+](=O)[O-] (relative stereo) [Compound 1, [1R-[1α(Z),2α(R*),3α,5α]]-7-[3,5-dihydroxy-2-(3-hydroxy-5-phenylpentyl)cyclopentyl]-5-heptenoic acid 4-(nitrooxy)butyl ester] | 290 % over vehicle | – | – | – | – | – | – | – | – | – | – | – | – | – | – | – | – | – | – | –
2 | 4.4 | O=C(CCC/C=C\C[C@@H]1[C@@H](CC[C@@H](O)CCc2ccccc2)[C@H](O)C[C@@H]1O)Oc1cccc(CO[N+](=O)[O-])c1 (relative stereo) [Compound 4, [1R-[1α(Z),2β(R*),3α,5α]]-7-[3,5-dihydroxy-2-(3-hydroxy-5-phenylpentyl)cyclopentyl]-5-heptenoic acid 3-(nitrooxymethyl)phenyl ester] | 450 % over vehicle | 31 ± 1 | 26 ± 1 | 20 ± 1 | 18 ± 2 | 16 ± 1 | 15 ± 1 | 14 ± 1 | 42 ± 2 | 22 ± 2 | 600 ± 25 | 102 ± 5 | 25 ± 3 | 650 ± 31 | 125 ± 5 | 26 ± 3 | 680 ± 28 | 140 ± 5 | 28 ± 3 | decrease of intraocular pressure ([2]; by the end of the study (4 weeks)): over 65%; decrease of intraocular pressure ([2]; within 7 days of repeated treatments): about 50%; cAMP ([3]; IV Week): 660 ± 22 fmol/mg prot; cGMP ([3]; IV Week): 160 ± 5 fmol/mg prot; NOx ([3]; Pre-treatment): 17 ± 1 nmol/mg prot; cAMP ([3]; Pre-treatment): 520 ± 20 fmol/mg prot; cGMP ([3]; Pre-treatment): 88 ± 5 fmol/mg prot; NOx in intraocular aqueous humor (in words) [3]: increased; cGMP in intraocular aqueous humor (in words) [3]: increased; intraocular cAMP (in words) [3]: remained unaltered
3 | 1.5 | COc1cc(/C=C/C(=O)OCCCCO[N+](=O)[O-])ccc1OC(=O)CCC/C=C\C[C@@H]1[C@@H](CC[C@@H](O)CCc2ccccc2)[C@H](O)C[C@@H]1O (relative stereo) [Compound 11, [1R-[1α(Z), 2β(R*),3α,5α]]-7-[3,5-dihydroxy-2-(3-hydroxy-5-phenylpentyl)cyclopentyl]-5-heptenoicacid[2-methoxy-4-[2-propenoyloxy(4-nitrooxybutyl)]]phenyl ester] | 480 % over vehicle | – | – | – | – | – | – | – | – | – | – | – | – | – | – | – | – | – | – | –
4 | – | CC(C)OC(=O)CCC/C=C\C[C@@H]1[C@@H](CC[C@@H](O)CCc2ccccc2)[C@H](O)C[C@@H]1O [Latanoprost isopropyl ester, reference compound] | – | 34 ± 2 | 33 ± 3 | 30 ± 1 | 31 ± 2 | 30 ± 2 | 32 ± 2 | 30 ± 2 | 37 ± 2 | 18 ± 2 | 550 ± 22 | 88 ± 6 | 18 ± 1 | 600 ± 30 | 98 ± 6 | 19 ± 2 | 620 ± 31 | 99 ± 6 | 19 ± 2 | change of intraocular pressure (in words) ([2]; 0.005% solution, 1 drop/eye/day, 4 weeks): nor its isopropyl derivative elicited any appreciable change; cAMP ([3]; IV Week): 625 ± 31 fmol/mg prot; cGMP ([3]; IV Week): 100 ± 6 fmol/mg prot; NOx ([3]; Pre-treatment): 16 ± 1 nmol/mg prot; cAMP ([3]; Pre-treatment): 510 ± 18 fmol/mg prot; cGMP ([3]; Pre-treatment): 87 ± 6 fmol/mg prot; NOx in intraocular aqueous humor (in words) [3]: did not significantly affect; cGMP in intraocular aqueous humor (in words) [3]: did not significantly affect; intraocular cAMP (in words) [3]: did not significantly affect
5 | – | CC(C)OC(=O)CCC/C=C\C[C@@H]1[C@@H](CC[C@@H](O)CCc2ccccc2)[C@H](O)C[C@@H]1O [Latanoprost, reference compound] | Not effective | – | – | – | – | – | – | – | – | – | – | – | – | – | – | – | – | – | – | cGMP accumulation (in words) ([1]; 1-50 μM): not shared; EC50 (effective concentration producing half maximal response), cGMP accumulation [1, 4]: Not effective
